Measurements: paper PMC7604414, “Favipiravir at high doses has potent antiviral activity in SARS-CoV-2−infected hamsters, whereas hydroxychloroquine lacks activity” (Proceedings of the National Academy of Sciences of the …, 2020)
Where “and” joins values, the source holds several entries; their conditions need not be identical. Equal entries are not always repeated. Where two headings read alike, the source gives them in different places.

How the values were obtained:
[1] = Favipiravir plasma trough concentrations in hamsters; type: in vivo, Syrian hamsters; conditions: for concentration at 16 h after last treatment: female, hamster, plasma
COVID-19 [2] = system: COVID-19; parameters: method as in ref 39 = [39]; 39 C. Chen ., Favipiravir versus arbidol for COVID-19: A randomized clinical trial . medRxiv:10.1101/2020.03.17.20037432 (20 March 2020) .; conditions: cited from earlier work
SARS-CoV-2 [3] = system: SARS-CoV-2; parameters: method as in PMID 33741945; conditions: cited from earlier work
SARS-CoV-2 [4] = conditions: hamster, in vivo
[5] = human, in vivo; cited from earlier work
[6] = parameters: method as in PMID 32405421; conditions: cited from earlier work
[7] = parameters: method as in ref 51 (Wei et al.); conditions: rats, ref 51 (Wei et al.); cited from earlier work
COVID-19 [8] = system: COVID-19; parameters: method as in ref 32 = [32]; 32 P. W. Horby , M. Landray , “Press release: No clinical benefit from use of hydroxychloroquine in hospitalised patients with COVID-19” (University of Oxford, 2020) .; conditions: patients admitted with COVID-19; cited from earlier work
[9] = parameters: method as in ref 50 (Tett et al.) and summary of product characteristics of Plaquenil; conditions: ref 50 (Tett et al.) and summary of product characteristics of Plaquenil; cited from earlier work
SARS-CoV-2 [10] = system: SARS-CoV-2; parameters: method as in ref 13 = [13]; 13 P. Maisonnasse ., Hydroxychloroquine in the treatment and prophylaxis of SARS-CoV-2 infection in non-human primates . Research Square:10.21203/RS.3.RS-27223/V1 (6 May 2020) .; conditions: therapeutic and prophylactic setting; cited from earlier work
SARS-CoV-2 [11] = system: SARS-CoV-2; parameters: method as in PMID 32444382; conditions: cited from earlier work
SARS-CoV-2 [12] = system: SARS-CoV-2; parameters: method as in PMID 32492293; conditions: postexposure prophylaxis, high doses of HCQ; cited from earlier work
[13] = HCQ plasma trough concentrations in hamsters (HPLC-MS); conditions: female, Syrian, hamster, intraperitoneal, 50 mg/kg/d
[14] = value applied in pH partition calculation; cited from earlier work
SARS-CoV-2 [15] = conditions: interquartile range of 5.4 (25 to 75%); read-out: reported in vitro EC50, median value; cited from earlier work
[16] = Calculation of HCQ blood, total lung and lung compartment concentrations; parameters: species or system Syrian hamsters
Protocol: Starting from the measured total trough plasma concentrations measured at killing after 4 d or 5 d of HCQ treatment, total lung cytosolic concentrations of HCQ were calculated. First, the mean trough total plasma concentration of HCQ was used as a starting point to estimate the whole blood concentrations considering a blood to plasma ratio of 7.2, as reported by Tett et al. ([50]) and as mentioned in the summary of product characteristics of Plaquenil (Sanofi) (Eq. 1). whole blood concentration=plasma concentration×7.2.
Relying on the experimental Kp (tissue versus whole blood partition coefficient) values in rats, the total lung tissue concentrations of HCQ were determined. Based on the partition values as reported by Wei et al. ([51]), a lung Kp value of 50 was applied to estimate the total lung concentration (Eq. 2). total lung tissue concentration=mean blood concentration×50.
Based on these calculations, lung cytosolic HCQ concentrations correspond to 6% of the total lung tissue concentration (Eq. 3). total cytosolic lung tissue concentration=total lung tissue concentration×0.06.

SARS-CoV-2 [17] = assay: Reported in vitro EC50 values of HCQ against SARS-CoV-2; type: cell-based; conditions: equated to 3 times the reported EC50

## NC(=O)c1nc(F)c[nH]c1=O [favipiravir]
[1]; Syrian, intraperitoneal, 1000 mg/kg/d, favipiravir 1,000 mg/kg/d i.p. BID for 4 d, read-out: plasma trough level
  concentration at 16 h after last treatment: ~4400 ng/mL
[1]; intraperitoneal, 1000 mg/kg/d, favipiravir 1,000 mg/kg/d i.p. BID for 4 d, read-out: plasma trough level
  concentration at 16 h after last treatment: 4400 ± 1600 ng/mL
[1]; intraperitoneal, favipiravir 600 mg/kg/d i.p. BID for 4 d, read-out: plasma trough level
  concentration at 16 h after last treatment: 1200 ± 300 ng/mL
[1]; favipiravir 300 mg/kg/d oral BID for 4 d, read-out: average plasma trough concentration
  concentration at 16 h after last treatment: 200 ± 30 ng/mL
[1]; preexposure prophylaxis with 300 and 1,000 mg/kg/d, dosing for 5 d
  favipiravir trough concentrations in sentinel hamsters vs infection model: similar
COVID-19 [2]; COVID-19 patients with hypertension and/or diabetes and critically ill patients
  clinical recovery rate vs arbidol control group: not significantly different
COVID-19 [2]; COVID-19 patients with mild symptoms
  clinical recovery rate at day 7 vs arbidol control group: higher
SARS-CoV-2 [3]; favipiravir 1,400 mg/kg/d TID started 1 d before intranasal infection
  viral replication in the lung: undetectable
SARS-CoV-2 [3]; favipiravir 1,400 mg/kg/d TID
  toxicity (weight loss from first day of treatment): high toxicity
SARS-CoV-2 [3]; favipiravir ~1,400 mg/kg/d TID
  virus infection in hamsters: significant reductions
SARS-CoV-2 [4]
  decrease of viral RNA in lung vs untreated infected hamsters: 1.0 log10 RNA copies per mg of lung tissue
  effect on viral RNA in ileum and stool: a smaller effect
  hamsters with infectious virus in the lungs: two
  histological lung pathology (H&E cumulative severity score): significant improvements
  reduction in viral RNA levels in the lungs: smaller inhibitory effect
  reduction of relative infectivity of lung virus particles: 136 fold and 172 fold
  relative lung viral particle infectivity (infectious particles / viral RNA genomes): did not decrease
  weight loss: over 5%
  weight loss, on average: 2%
SARS-CoV-2 [4]; ip
  toxicity signs in clinical presentation: No toxicity signs
[5]
  median plasma trough concentration: 25.9 µg/mL
[6]
  teratogenicity: teratogenic

## CCN(CCO)CCCC(C)Nc1ccnc2cc(Cl)ccc12 (stereo not shown) [HCQ, hydroxychloroquine]
[7]
  lung Kp (tissue versus whole blood partition coefficient): 50
COVID-19 [8]
  mortality or duration of hospital stay: did not result in a beneficial effect
[9]
  blood to plasma ratio: 7.2
SARS-CoV-2 [10]
  viral loads in SARS-CoV-2-infected cynomolgus macaques: did not result in a significant decrease
SARS-CoV-2 [11]
  virus titers in SARS-CoV-2-infected ferrets: not able to significantly reduce
SARS-CoV-2 [12]
  prevention of SARS-CoV-2 infection or COVID-19-like disease: did not prevent
SARS-CoV-2 [4]
  radiological improvement (micro-CT) vs nontreated animals: no radiological improvement
  reduction in viral RNA load in the ileum or stool: no reduction
  reduction of infectious virus titers in the lungs: no significant reduction
  reduction of viral RNA in lung vs untreated infected hamsters: 0.3 log10 viral RNA copies per mg of lung
  weight loss: < 5%
[13]
  concentration at 4 d post infection (at killing): 84 ng/mL and 300 nM
[14]
  pKa: 9.67
SARS-CoV-2 [15]
  EC50: 4.5 µM
[16]; pH partition theory, relative lung compartment volumes
  lung cytosolic HCQ concentration as share of total lung tissue concentration: 6%
[16]; trough, HCQ sulfate 50 mg/kg/d
  endosomal/lysosomal HCQ concentration: 1.9 mM
  interstitial concentration in lung: 5.4 µM
[16]; trough, HCQ sulfate 50 mg/kg/d, blood concentration × 50
  total lung concentration (Eq. 2): 90.2 ± 69.4 µM
[16]; trough, HCQ sulfate 50 mg/kg/d, plasma concentration × 7.2
  whole blood concentration (Eq. 1): 1.8 ± 1.4 µM
[16]; trough, HCQ sulfate 50 mg/kg/d, total lung × 0.06
  total cytosolic lung tissue concentration (Eq. 3): 5.4 ± 4.2 µM
SARS-CoV-2 [17]
  estimated EC90 (3 times the EC50), target lung concentration: 13.5 ± 16.3 µM
